Values of other authors, collected in patent US8716354B2 (priority 2003, dated 2014).

Conditions: intravenous injection of a therapeutic dose

CC(C)c1cccc(C(C)C)c1O [propofol, 2,6-diisopropylphenol]
Time to hypnosis from the start of injection: ≤ 40 s
